Measured values from PubChem BioAssay (NCI).
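A five-concentration, 48-hour dose response in 96-well plates underlies each endpoint, interpolated linearly between surrounding concentrations. GI50 = concentration required for 50% inhibition of growth. TGI: concentration producing complete growth inhibition.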

Assays:
Assay in all cases: inhibition of tumour cell growth, NCI panel, 48 h
[1] = test system: RXF 393 renal
[2] = test system: MDA-MB-231 breast
[3] = test system: HOP-62 NSCLC
[4] = test system: UO-31 renal
[5] = test system: T-47D breast
[6] = test system: IGROV1 ovarian
[7] = test system: CCRF-CEM leukemia
[8] = test system: M14 melanoma
[9] = test system: SF-268 CNS
[10] = test system: MDA-MB-435
[11] = test system: SF-539 CNS
[12] = test system: OVCAR-8 ovarian
[13] = test system: KM12 colon
[14] = test system: HCT-15 colon
[15] = test system: ACHN renal
[16] = test system: COLO 205 colon
[17] = test system: LOX IMVI melanoma
[18] = test system: A498 renal
[19] = test system: RPMI-8226 leukemia
[20] = test system: PC-3 prostate
[21] = test system: OVCAR-3 ovarian
[22] = test system: TK-10 renal
[23] = test system: SNB-19 CNS
[24] = test system: CAKI-1 renal
[25] = test system: MOLT-4 leukemia
[26] = test system: OVCAR-5 ovarian
[27] = test system: NCI-H522 lung
[28] = test system: UACC-257 melanoma
[29] = test system: SN12C renal
[30] = test system: 786-0 renal
[31] = test system: HS 578T breast
[32] = test system: HCC-2998 colon
[33] = test system: NCI-H460 lung
[34] = test system: SK-MEL-5 melanoma
[35] = test system: HCT-116 colon
[36] = test system: K-562 leukemia
[37] = test system: SK-MEL-28 melanoma
[38] = test system: NCI-H23 lung
[39] = test system: HT29 colon
[40] = test system: U251 CNS
[41] = test system: MCF7 breast
[42] = test system: EKVX NSCLC
[43] = test system: A549 NSCLC
[44] = test system: DU-145 prostate
[45] = test system: NCI/ADR-RES ovarian
[46] = test system: SW-620 colon
[47] = test system: SNB-75 CNS
[48] = test system: HL-60(TB) leukemia
[49] = test system: UACC-62 melanoma
[50] = test system: HOP-92 NSCLC
[51] = test system: MALME-3M melanoma
[52] = test system: OVCAR-4 ovarian
[53] = test system: BT-549 breast
[54] = test system: NCI-H226 lung
[55] = test system: SF-295 CNS

## Cc1cc(S(=O)(=O)Nc2nc3ccsc3c(=O)n2Cc2ccccc2)c(S)cc1Cl
[1]
  GI50: 44 µM
  TGI: > 100 µM
[2]
  GI50: 30.3 µM
  TGI: 72.5 µM
[3]
  GI50: 22.7 µM
  TGI: 46.6 µM
[4]
  GI50: 86 µM
  TGI: > 100 µM
[5]
  GI50: 52.4 µM
  TGI: > 100 µM
[6]
  GI50: 43.1 µM
  TGI: > 100 µM
[7]
  GI50: 34 µM
  TGI: > 100 µM
[8]
  GI50: 21.8 µM
  TGI: 49.6 µM
[9]
  GI50: 30.6 µM
  TGI: > 100 µM
[10]
  GI50: 29.3 µM
  TGI: 91.6 µM
[11]
  GI50: 28.1 µM
  TGI: 70.3 µM
[12]
  GI50: 44.5 µM
  TGI: > 100 µM
[13]
  GI50: 20.1 µM
  TGI: 48.2 µM
[14]
  GI50: 74.5 µM
  TGI: > 100 µM
[15]
  GI50: 57.5 µM
  TGI: > 100 µM
[16]
  GI50: 37.5 µM
  TGI: > 100 µM
[17]
  GI50: 31.1 µM
  TGI: 65.3 µM
[18]
  GI50: 14.2 µM
  TGI: 49.3 µM
[19]
  GI50: 33.4 µM
  TGI: > 100 µM
[20]
  GI50: 40.4 µM
  TGI: > 100 µM
[21]
  GI50: 24.3 µM
  TGI: 53 µM
[22]
  GI50: 29.7 µM
  TGI: 91.1 µM
[23]
  GI50: 32.4 µM
  TGI: > 100 µM
[24]
  GI50: 41.2 µM
  TGI: > 100 µM
[25]
  GI50: 37.9 µM
  TGI: > 100 µM
[26]
  GI50: 32.9 µM
  TGI: 97.5 µM
[27]
  GI50: 37 µM
  TGI: > 100 µM
[28]
  GI50: 47.8 µM
  TGI: > 100 µM
[29]
  GI50: 31.1 µM
  TGI: 58.8 µM
[30]
  GI50: 32.2 µM
  TGI: > 100 µM
[31]
  GI50: 42.3 µM
  TGI: > 100 µM
[32]
  GI50: 24 µM
  TGI: 43.7 µM
[33]
  GI50: 23.6 µM
  TGI: 71 µM
[34]
  GI50: 12.5 µM
  TGI: 34.2 µM
[35]
  GI50: 19.2 µM
  TGI: 37.7 µM
[36]
  GI50: 67.9 µM
  TGI: > 100 µM
[37]
  GI50: 25 µM
  TGI: 57.2 µM
[38]
  GI50: 24.9 µM
  TGI: 57.5 µM
[39]
  GI50: 43.7 µM
  TGI: > 100 µM
[40]
  GI50: 35.9 µM
  TGI: > 100 µM
[41]
  GI50: 34.4 µM
  TGI: > 100 µM
[42]
  GI50: 21.8 µM
  TGI: 77.3 µM
[43]
  GI50: 34.5 µM
  TGI: > 100 µM
[44]
  GI50: 34.6 µM
  TGI: > 100 µM
[45]
  GI50: 67.8 µM
  TGI: > 100 µM
[46]
  GI50: 34.1 µM
  TGI: > 100 µM
[47]
  GI50: > 100 µM
  TGI: > 100 µM
[48]
  GI50: > 100 µM
  TGI: > 100 µM
[49]
  GI50: 21.5 µM
  TGI: 44.4 µM
[50]
  GI50: 87.6 µM
  TGI: > 100 µM
[51]
  GI50: 21.2 µM
  TGI: 50.1 µM
[52]
  GI50: 44 µM
  TGI: > 100 µM
[53]
  GI50: 28 µM
  TGI: 89.8 µM
[54]
  GI50: 34.5 µM
  TGI: 93.6 µM
[55]
  GI50: 26.8 µM
  TGI: 98.7 µM
